Results as given in the supplement of paper PMC10307832.

Assays:
Assay in all cases: relative viability (nuclei count vs DMSO), 5 days (fraction); higher = more cells survive
[1] = compound: CC1=CC(=C(N1C2=CC=C(C=C2)Cl)C)C(=O)CN3CCCCC3 [IU1-47] + CS(=O)(=O)CCNCc1ccc(-c2ccc3ncnc(Nc4ccc(OCc5cccc(F)c5)c(Cl)c4)c3c2)o1 [Lapatinib] (partner 2 µM)
Summary of the method: (§1)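 Five library-drug doses in √10 steps were combined with a fixed anchor-drug dose, or a single drug was given alone, by pin tool to lung cancer cell lines in 1536-well plates the day after seeding. Nuclei were stained and counted after 5 days. Relative viability is the nuclei count in treated wells over that in vehicle wells, taken as the median of duplicate plates.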

[2] = compound: CC1=CC(=C(N1C2=CC=C(C=C2)Cl)C)C(=O)CN3CCCCC3 [IU1-47] + COc1cc2c(Oc3ccc(NC(=O)C4(C(=O)Nc5ccc(F)cc5)CC4)cc3F)ccnc2cc1OCCCN1CCOCC1 [Foretinib] (partner 0.25 µM)
Summary of the method: as §1

[3] = compound: Cc1nc(C(=O)NCC(=O)O)c(O)c2ccc(Oc3ccccc3)cc12 [FG-4592] + COc1cccc2cc(-c3nc([C@H]4CC[C@H](C(=O)O)CC4)n4ncnc(N)c34)[nH]c12 [OSI-027] (partner 0.5 µM)
Summary of the method: as §1

[4] = compound: Cc1nc(C(=O)NCC(=O)O)c(O)c2ccc(Oc3ccccc3)cc12 [FG-4592] + NC(=O)Nc1cc(-c2cccc(F)c2)sc1C(=O)N[C@H]1CCCNC1 [AZD7762] (partner 0.2 µM)
Summary of the method: as §1

Cell Line: EBC-1
- relative viability ([1]; first compound 0.08 µM): 0.214
- relative viability ([1]; first compound 0.253 µM): 0.216
- relative viability ([1]; first compound 0.8 µM): 0.218
- relative viability ([1]; first compound 2.53 µM): 0.226
- relative viability ([1]; first compound 8 µM): 0.205
- relative viability ([2]; first compound 0.08 µM): 0.0995
- relative viability ([2]; first compound 0.253 µM): 0.107
- relative viability ([2]; first compound 0.8 µM): 0.0951
- relative viability ([2]; first compound 2.53 µM): 0.111
- relative viability ([2]; first compound 8 µM): 0.102

Cell Line: EKVX
- relative viability ([1]; first compound 0.08 µM): 0.214
- relative viability ([1]; first compound 0.253 µM): 0.27
- relative viability ([1]; first compound 0.8 µM): 0.199
- relative viability ([1]; first compound 2.53 µM): 0.214
- relative viability ([1]; first compound 8 µM): 0.219
- relative viability ([3]; first compound 0.08 µM): 0.626
- relative viability ([3]; first compound 0.253 µM): 0.649
- relative viability ([3]; first compound 0.8 µM): 0.718
- relative viability ([3]; first compound 2.53 µM): 0.663
- relative viability ([3]; first compound 8 µM): 0.73
- relative viability ([4]; first compound 0.08 µM): 0.732
- relative viability ([4]; first compound 0.253 µM): 0.628
- relative viability ([4]; first compound 0.8 µM): 0.758
- relative viability ([4]; first compound 2.53 µM): 0.665
- relative viability ([4]; first compound 8 µM): 0.747
- relative viability ([2]; first compound 0.08 µM): 1.12
- relative viability ([2]; first compound 0.253 µM): 1.19
- relative viability ([2]; first compound 0.8 µM): 0.769
- relative viability ([2]; first compound 2.53 µM): 0.265
- relative viability ([2]; first compound 8 µM): 0.85

Cell Line: EMC-BAC-2
- relative viability ([1]; first compound 0.08 µM): 0.947
- relative viability ([1]; first compound 0.253 µM): 0.944
- relative viability ([1]; first compound 0.8 µM): 0.966
- relative viability ([1]; first compound 2.53 µM): 0.955
- relative viability ([1]; first compound 8 µM): 0.879
- relative viability ([3]; first compound 0.08 µM): 0.338
- relative viability ([3]; first compound 0.253 µM): 0.407
- relative viability ([3]; first compound 0.8 µM): 0.339
- relative viability ([3]; first compound 2.53 µM): 0.333
- relative viability ([3]; first compound 8 µM): 0.344
- relative viability ([4]; first compound 0.08 µM): 1.17
- relative viability ([4]; first compound 0.253 µM): 0.903
- relative viability ([4]; first compound 0.8 µM): 0.901
- relative viability ([4]; first compound 2.53 µM): 1.08
- relative viability ([4]; first compound 8 µM): 1
- relative viability ([2]; first compound 0.08 µM): 1.07
- relative viability ([2]; first compound 0.253 µM): 1.11
- relative viability ([2]; first compound 0.8 µM): 0.984
- relative viability ([2]; first compound 2.53 µM): 1.02
- relative viability ([2]; first compound 8 µM): 1.05

Cell Line: EPLC-272H
- relative viability ([1]; first compound 0.08 µM): 1.16
- relative viability ([1]; first compound 0.253 µM): 0.925
- relative viability ([1]; first compound 0.8 µM): 0.965
- relative viability ([1]; first compound 8 µM): 0.528
- relative viability ([3]; first compound 0.08 µM): 0.348
- relative viability ([3]; first compound 0.253 µM): 0.206
- relative viability ([3]; first compound 0.8 µM): 0.285
- relative viability ([3]; first compound 2.53 µM): 0.29
- relative viability ([3]; first compound 8 µM): 0.232
- relative viability ([4]; first compound 0.08 µM): 0.194
- relative viability ([4]; first compound 0.253 µM): 0.426
- relative viability ([4]; first compound 0.8 µM): 0.224
- relative viability ([4]; first compound 2.53 µM): 0.181
- relative viability ([4]; first compound 8 µM): 0.15
- relative viability ([2]; first compound 0.08 µM): 0.659
- relative viability ([2]; first compound 0.253 µM): 0.775
- relative viability ([2]; first compound 0.8 µM): 0.764
- relative viability ([2]; first compound 8 µM): 0.606

Cell Line: H3255
- relative viability ([1]; first compound 0.08 µM): 0.242
- relative viability ([1]; first compound 0.253 µM): 0.242
- relative viability ([1]; first compound 0.8 µM): 0.256
- relative viability ([1]; first compound 2.53 µM): 0.238
- relative viability ([1]; first compound 8 µM): 0.246
- relative viability ([3]; first compound 0.08 µM): 0.573
- relative viability ([3]; first compound 0.253 µM): 0.576
- relative viability ([3]; first compound 0.8 µM): 0.626
- relative viability ([3]; first compound 2.53 µM): 0.617
- relative viability ([3]; first compound 8 µM): 0.62
- relative viability ([4]; first compound 0.08 µM): 0.902
- relative viability ([4]; first compound 0.253 µM): 0.802
- relative viability ([4]; first compound 0.8 µM): 0.995
- relative viability ([4]; first compound 2.53 µM): 0.754
- relative viability ([4]; first compound 8 µM): 0.831
- relative viability ([2]; first compound 0.08 µM): 0.858
- relative viability ([2]; first compound 0.253 µM): 0.958
- relative viability ([2]; first compound 0.8 µM): 1.44
- relative viability ([2]; first compound 2.53 µM): 0.368
- relative viability ([2]; first compound 8 µM): 0.832

Cell Line: HARA
- relative viability ([1]; first compound 0.08 µM): 0.849
- relative viability ([1]; first compound 0.253 µM): 0.817
- relative viability ([1]; first compound 0.8 µM): 0.884
- relative viability ([1]; first compound 2.53 µM): 0.694
- relative viability ([1]; first compound 8 µM): 0.563
- relative viability ([3]; first compound 0.08 µM): 0.334
- relative viability ([3]; first compound 0.253 µM): 0.335
- relative viability ([3]; first compound 0.8 µM): 0.434
- relative viability ([3]; first compound 2.53 µM): 0.392
- relative viability ([3]; first compound 8 µM): 0.234
- relative viability ([4]; first compound 2.53 µM): 0.251
- relative viability ([4]; first compound 8 µM): 0.431
- relative viability ([2]; first compound 0.08 µM): 1.02
- relative viability ([2]; first compound 0.253 µM): 1.1
- relative viability ([2]; first compound 0.8 µM): 1.04
- relative viability ([2]; first compound 8 µM): 0.742

Cell Line: HCC-15
- relative viability ([1]; first compound 0.08 µM): 0.897
- relative viability ([1]; first compound 0.253 µM): 0.854
- relative viability ([1]; first compound 0.8 µM): 0.999
- relative viability ([1]; first compound 2.53 µM): 0.677
- relative viability ([1]; first compound 8 µM): 0.798
- relative viability ([3]; first compound 0.08 µM): 0.626
- relative viability ([3]; first compound 0.253 µM): 0.626
- relative viability ([3]; first compound 0.8 µM): 0.674
- relative viability ([3]; first compound 2.53 µM): 0.614
- relative viability ([3]; first compound 8 µM): 0.701
- relative viability ([4]; first compound 0.08 µM): 1.29
- relative viability ([4]; first compound 0.253 µM): 1.25
- relative viability ([4]; first compound 0.8 µM): 1.14
- relative viability ([4]; first compound 2.53 µM): 1.18
- relative viability ([4]; first compound 8 µM): 1.25
- relative viability ([2]; first compound 0.08 µM): 1.07
- relative viability ([2]; first compound 0.253 µM): 1.11
- relative viability ([2]; first compound 0.8 µM): 1.15
- relative viability ([2]; first compound 2.53 µM): 1.01
- relative viability ([2]; first compound 8 µM): 1.05

Cell Line: HCC-44
- relative viability ([1]; first compound 0.08 µM): 0.985
- relative viability ([1]; first compound 0.253 µM): 1.03
- relative viability ([1]; first compound 0.8 µM): 1.07
- relative viability ([1]; first compound 2.53 µM): 1.05
- relative viability ([1]; first compound 8 µM): 0.825
- relative viability ([3]; first compound 0.08 µM): 0.504
- relative viability ([3]; first compound 0.253 µM): 0.489
- relative viability ([3]; first compound 2.53 µM): 0.476
- relative viability ([3]; first compound 8 µM): 0.377
- relative viability ([4]; first compound 0.08 µM): 0.993
- relative viability ([4]; first compound 0.253 µM): 1.01
- relative viability ([4]; first compound 0.8 µM): 1.16
- relative viability ([4]; first compound 2.53 µM): 1.06
- relative viability ([4]; first compound 8 µM): 0.997

Cell Line: HCC-78
- relative viability ([1]; first compound 0.08 µM): 0.721
- relative viability ([1]; first compound 0.253 µM): 0.347
- relative viability ([1]; first compound 0.8 µM): 1
- relative viability ([1]; first compound 2.53 µM): 0.717
- relative viability ([1]; first compound 8 µM): 0.712
- relative viability ([3]; first compound 0.08 µM): 0.346
- relative viability ([3]; first compound 0.253 µM): 0.307
- relative viability ([3]; first compound 0.8 µM): 0.406
- relative viability ([3]; first compound 2.53 µM): 0.357
- relative viability ([3]; first compound 8 µM): 0.362
- relative viability ([4]; first compound 0.08 µM): 0.558
- relative viability ([4]; first compound 0.8 µM): 0.534
- relative viability ([4]; first compound 2.53 µM): 0.625
- relative viability ([4]; first compound 8 µM): 0.662
- relative viability ([2]; first compound 0.08 µM): 0.608
- relative viability ([2]; first compound 0.253 µM): 0.57
- relative viability ([2]; first compound 0.8 µM): 0.615
- relative viability ([2]; first compound 2.53 µM): 0.551
- relative viability ([2]; first compound 8 µM): 0.606
